Test results taken from ChEMBL document CHEMBL1201862, “PubChem BioAssay data set” (2004).
Calls of active or inactive are those of the source.

Experiments:
[1] = target: Nucleotide-binding oligomerization domain-containing protein 2 (Homo sapiens, UniProt Q9HC29); assay: inhibition of NOD2-driven NF-kB reporter – cell-based, luminescence, uHTS, HEK293 (AID 1566); format: functional
HEK293 [2] = assay: cells; format: functional, cell-based; settings: Homo sapiens
HEK293 [3] = assay: inhibition of NOD1-driven NF-kB reporter – cell-based, luminescence, uHTS, primary screen (AID 1578); format: functional; settings: Homo sapiens
HEK293 [4] = assay: NOD2 signaling inhibitors in MDP-stimulated cells, cell-based, uHTS, luminescence (AID 2001); format: functional; settings: Homo sapiens
HEK293 [5] = assay: cells; format: functional, cell-based; settings: Homo sapiens; remark: listed apart in the source
HEK293 [6] = assay: cells; format: functional, cell-based; settings: Homo sapiens; remark: listed apart in the source
[7] = target: Dual specificity protein phosphatase 3 (Homo sapiens, UniProt P51452); assay: inhibition constants for human DUSP3 – biochemical, colorimetric, SAR follow-up (AID 2004)
Sequence of Dual specificity protein phosphatase 3 (P51452 whole entry): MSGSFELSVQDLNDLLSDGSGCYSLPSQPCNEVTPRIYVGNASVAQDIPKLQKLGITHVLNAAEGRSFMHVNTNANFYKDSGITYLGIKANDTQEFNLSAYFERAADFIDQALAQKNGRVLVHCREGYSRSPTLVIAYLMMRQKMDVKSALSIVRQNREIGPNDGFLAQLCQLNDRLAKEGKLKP

Ephrin type-A receptor 4 = Ephrin type-A receptor 4 (Mus musculus, UniProt Q03137); assay: EphA4 ligand-binding antagonists – biochemical, colorimetric, mouse EphA4, primary screen (AID 689); format: functional
Sequence of Ephrin type-A receptor 4 (Q03137 whole entry): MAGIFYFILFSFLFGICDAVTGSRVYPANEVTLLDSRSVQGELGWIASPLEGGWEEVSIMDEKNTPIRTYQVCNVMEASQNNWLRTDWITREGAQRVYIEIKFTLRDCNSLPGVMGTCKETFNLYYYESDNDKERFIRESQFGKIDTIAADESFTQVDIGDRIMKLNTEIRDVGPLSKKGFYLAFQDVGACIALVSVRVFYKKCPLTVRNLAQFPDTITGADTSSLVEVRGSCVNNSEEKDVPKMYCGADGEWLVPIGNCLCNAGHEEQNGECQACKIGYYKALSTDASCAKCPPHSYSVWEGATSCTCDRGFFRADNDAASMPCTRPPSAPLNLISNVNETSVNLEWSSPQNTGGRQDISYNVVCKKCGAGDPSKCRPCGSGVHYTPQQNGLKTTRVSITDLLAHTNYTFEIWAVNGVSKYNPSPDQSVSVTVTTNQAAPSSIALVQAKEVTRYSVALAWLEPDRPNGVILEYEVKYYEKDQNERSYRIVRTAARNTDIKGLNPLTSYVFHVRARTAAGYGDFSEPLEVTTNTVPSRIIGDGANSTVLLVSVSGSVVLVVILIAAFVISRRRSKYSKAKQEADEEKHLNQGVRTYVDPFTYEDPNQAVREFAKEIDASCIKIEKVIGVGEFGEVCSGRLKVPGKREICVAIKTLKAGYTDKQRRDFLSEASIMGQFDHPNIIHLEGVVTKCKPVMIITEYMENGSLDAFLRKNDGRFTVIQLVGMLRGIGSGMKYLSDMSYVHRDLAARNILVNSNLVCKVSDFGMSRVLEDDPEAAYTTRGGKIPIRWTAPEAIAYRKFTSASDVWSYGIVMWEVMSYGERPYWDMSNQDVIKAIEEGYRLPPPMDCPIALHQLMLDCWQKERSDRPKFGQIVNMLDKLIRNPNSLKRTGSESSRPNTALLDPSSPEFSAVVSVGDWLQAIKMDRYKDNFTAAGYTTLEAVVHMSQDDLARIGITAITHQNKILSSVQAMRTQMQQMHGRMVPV

Genome polyprotein = Genome polyprotein (dengue virus type 2, UniProt P29990); assay: flavivirus cap methylation enzyme inhibition – biochemical, confirmation dose response, primary screen (AID 588689); format: functional
Sequence of Genome polyprotein (P29990 2492-3391 limits assumed): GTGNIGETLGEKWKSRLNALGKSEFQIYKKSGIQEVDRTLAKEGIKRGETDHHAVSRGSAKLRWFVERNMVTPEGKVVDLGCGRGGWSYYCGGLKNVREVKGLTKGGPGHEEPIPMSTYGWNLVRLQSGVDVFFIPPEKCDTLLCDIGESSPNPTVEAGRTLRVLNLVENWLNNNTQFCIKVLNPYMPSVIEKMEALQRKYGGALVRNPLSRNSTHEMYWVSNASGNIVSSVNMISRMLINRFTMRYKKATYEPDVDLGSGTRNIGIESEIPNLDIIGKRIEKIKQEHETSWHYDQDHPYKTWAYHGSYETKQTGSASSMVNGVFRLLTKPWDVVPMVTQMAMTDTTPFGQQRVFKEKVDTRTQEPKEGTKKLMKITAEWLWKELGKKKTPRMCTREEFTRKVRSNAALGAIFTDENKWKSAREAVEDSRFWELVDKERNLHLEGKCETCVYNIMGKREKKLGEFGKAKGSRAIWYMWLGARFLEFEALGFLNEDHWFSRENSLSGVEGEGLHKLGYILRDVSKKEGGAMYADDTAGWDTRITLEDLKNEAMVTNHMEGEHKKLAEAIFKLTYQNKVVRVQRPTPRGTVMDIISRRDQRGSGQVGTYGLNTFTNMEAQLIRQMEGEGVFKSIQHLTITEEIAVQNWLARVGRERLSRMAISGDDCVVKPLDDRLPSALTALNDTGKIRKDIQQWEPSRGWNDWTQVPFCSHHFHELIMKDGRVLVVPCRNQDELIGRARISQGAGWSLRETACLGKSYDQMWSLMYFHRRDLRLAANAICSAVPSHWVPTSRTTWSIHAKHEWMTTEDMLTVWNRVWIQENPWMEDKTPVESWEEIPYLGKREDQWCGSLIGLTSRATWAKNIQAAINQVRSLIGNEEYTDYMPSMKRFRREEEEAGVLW

Estrogen receptor beta = Estrogen receptor beta (Homo sapiens, UniProt Q92731); assay: blockers of SRC-3 recruitment to ERβ – biochemical, ELISA, streptavidin-HRP readout, orthogonal assay, confirmation (AID 1060)
[8] = target: Induced myeloid leukemia cell differentiation protein Mcl-1 (Homo sapiens, UniProt Q07820); format: functional
Sequence of Induced myeloid leukemia cell differentiation protein Mcl-1 (Q07820 whole entry): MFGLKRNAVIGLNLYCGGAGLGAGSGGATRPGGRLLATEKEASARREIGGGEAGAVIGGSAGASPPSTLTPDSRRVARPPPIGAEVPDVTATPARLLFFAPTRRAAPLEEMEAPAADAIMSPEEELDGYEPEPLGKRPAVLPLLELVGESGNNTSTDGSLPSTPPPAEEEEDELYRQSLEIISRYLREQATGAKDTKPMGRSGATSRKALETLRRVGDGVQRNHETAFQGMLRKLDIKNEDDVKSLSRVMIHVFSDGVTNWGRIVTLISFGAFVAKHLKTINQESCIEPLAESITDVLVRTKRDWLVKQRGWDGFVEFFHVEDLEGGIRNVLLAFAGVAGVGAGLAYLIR

[9] = target: T1, Tyrosine-protein phosphatase non-receptor type 7 (Homo sapiens, UniProt P35236); assay: redox-active compounds inhibiting HePTP phosphatase – biochemical, fluorescence, mechanism study (AID 2068); format: functional
T1 sequence (P35236 whole entry): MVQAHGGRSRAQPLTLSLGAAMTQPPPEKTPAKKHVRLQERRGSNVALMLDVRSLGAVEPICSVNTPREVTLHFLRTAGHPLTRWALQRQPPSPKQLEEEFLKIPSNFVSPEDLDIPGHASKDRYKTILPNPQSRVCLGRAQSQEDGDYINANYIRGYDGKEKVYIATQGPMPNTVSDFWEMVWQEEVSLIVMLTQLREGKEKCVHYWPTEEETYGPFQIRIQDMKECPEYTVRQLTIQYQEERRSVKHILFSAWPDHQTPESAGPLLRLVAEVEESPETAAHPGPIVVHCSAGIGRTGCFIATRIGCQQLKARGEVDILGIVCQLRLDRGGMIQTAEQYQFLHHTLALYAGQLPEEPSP

[10] = target: T2, Apoptotic protease-activating factor 1 (Homo sapiens, UniProt O14727); format: functional
T2 sequence (O14727 whole entry): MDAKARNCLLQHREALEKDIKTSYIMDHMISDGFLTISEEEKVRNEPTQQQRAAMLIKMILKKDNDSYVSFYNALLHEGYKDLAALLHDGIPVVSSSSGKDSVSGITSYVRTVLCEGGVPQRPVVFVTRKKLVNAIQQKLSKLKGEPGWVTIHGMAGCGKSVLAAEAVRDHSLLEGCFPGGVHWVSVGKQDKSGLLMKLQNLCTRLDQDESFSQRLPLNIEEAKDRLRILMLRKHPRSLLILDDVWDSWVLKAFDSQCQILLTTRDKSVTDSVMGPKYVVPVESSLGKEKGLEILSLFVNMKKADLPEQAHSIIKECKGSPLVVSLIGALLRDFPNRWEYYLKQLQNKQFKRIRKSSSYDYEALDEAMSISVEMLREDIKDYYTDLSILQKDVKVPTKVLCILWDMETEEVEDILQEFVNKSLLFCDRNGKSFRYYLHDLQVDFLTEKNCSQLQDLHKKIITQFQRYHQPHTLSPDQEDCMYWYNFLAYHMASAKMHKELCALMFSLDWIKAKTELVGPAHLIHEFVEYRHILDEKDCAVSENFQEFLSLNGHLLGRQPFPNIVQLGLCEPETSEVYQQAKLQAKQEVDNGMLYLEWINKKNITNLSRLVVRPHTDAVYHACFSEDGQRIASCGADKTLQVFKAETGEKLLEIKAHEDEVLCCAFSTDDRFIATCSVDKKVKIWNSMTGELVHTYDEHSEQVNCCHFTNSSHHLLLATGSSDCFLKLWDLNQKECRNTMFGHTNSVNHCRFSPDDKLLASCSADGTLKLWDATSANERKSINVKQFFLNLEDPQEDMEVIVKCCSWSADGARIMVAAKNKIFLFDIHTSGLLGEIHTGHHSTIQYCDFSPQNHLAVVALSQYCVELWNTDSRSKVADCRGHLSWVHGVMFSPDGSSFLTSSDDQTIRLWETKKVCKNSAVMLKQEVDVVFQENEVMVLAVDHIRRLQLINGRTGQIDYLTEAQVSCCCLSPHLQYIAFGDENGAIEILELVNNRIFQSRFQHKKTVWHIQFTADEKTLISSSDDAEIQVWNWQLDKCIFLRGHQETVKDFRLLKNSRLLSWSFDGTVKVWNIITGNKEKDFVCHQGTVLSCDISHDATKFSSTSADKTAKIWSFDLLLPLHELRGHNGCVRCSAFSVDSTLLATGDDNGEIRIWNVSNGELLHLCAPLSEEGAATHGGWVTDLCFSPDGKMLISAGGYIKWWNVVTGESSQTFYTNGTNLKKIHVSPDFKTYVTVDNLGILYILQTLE

INS1 = assay: INS-1E survival protection against cytokine death – cell-based, luminescence, retest, dose response (AID 449756); format: functional; settings: Rattus norvegicus;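 note: cell death triggered by IL-1 beta plus TNF-alpha plus IFN-gamma mixture; protective hits raise ATP signal compared with cytokine alone wells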
[11] = test system: Streptococcus sp. 'group A'; assay: Streptococcus pyogenes SK(-)GAS viability under kanamycin – luminescence, BacTiterGlo, confirmation, counter-screen for streptokinase expression inhibitor project, dose response (AID 1900); format: functional, organism-based; settings: Streptococcus sp. 'group A'
Streptococcus = assay: GAS UMAA2166 growth inhibition – luminescence, BacTiterGlo, counter-screen for streptokinase expression inhibitor project, dose response (AID 1915); format: functional, organism-based; settings: Streptococcus;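 note: potency for reduction of bacterial viability or growth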
[12] = target: T3, Alkaline phosphatase, tissue-nonspecific isozyme (Homo sapiens, UniProt P05186); assay: potency against alkaline phosphatase TNAP – biochemical, luminescent, dose response, SAR follow-up (AID 1056)
T3 sequence (P05186 whole entry): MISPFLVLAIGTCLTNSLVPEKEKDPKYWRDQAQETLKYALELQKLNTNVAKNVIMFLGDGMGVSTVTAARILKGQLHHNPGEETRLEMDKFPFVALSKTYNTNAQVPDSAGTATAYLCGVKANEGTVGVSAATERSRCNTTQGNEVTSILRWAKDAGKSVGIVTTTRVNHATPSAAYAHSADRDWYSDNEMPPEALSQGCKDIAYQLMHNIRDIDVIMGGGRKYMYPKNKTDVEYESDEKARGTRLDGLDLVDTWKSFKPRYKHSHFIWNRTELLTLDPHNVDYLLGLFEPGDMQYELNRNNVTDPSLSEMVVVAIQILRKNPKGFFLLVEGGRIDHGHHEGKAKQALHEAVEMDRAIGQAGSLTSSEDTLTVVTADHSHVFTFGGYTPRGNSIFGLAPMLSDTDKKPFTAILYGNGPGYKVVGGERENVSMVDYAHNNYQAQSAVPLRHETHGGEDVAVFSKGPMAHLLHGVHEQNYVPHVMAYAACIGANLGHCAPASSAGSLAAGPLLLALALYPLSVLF

[13] = target: Glyceraldehyde-3-phosphate dehydrogenase (Homo sapiens, UniProt P04406)
Sequence of Glyceraldehyde-3-phosphate dehydrogenase (P04406 whole entry): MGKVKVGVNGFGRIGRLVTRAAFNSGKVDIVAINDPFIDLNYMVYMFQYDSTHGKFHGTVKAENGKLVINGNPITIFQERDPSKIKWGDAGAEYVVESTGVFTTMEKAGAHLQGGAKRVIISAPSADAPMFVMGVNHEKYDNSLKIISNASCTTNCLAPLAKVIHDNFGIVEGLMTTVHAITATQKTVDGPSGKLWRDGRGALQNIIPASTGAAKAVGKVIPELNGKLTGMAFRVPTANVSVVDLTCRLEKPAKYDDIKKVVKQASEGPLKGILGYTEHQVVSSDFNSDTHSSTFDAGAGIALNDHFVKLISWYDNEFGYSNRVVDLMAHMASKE

[14] = target: Alkaline phosphatase, placental type (Homo sapiens, UniProt P05187); assay: human placental alkaline phosphatase inhibition – biochemical, luminescence, confirmation (AID 1512); format: functional
Sequence of Alkaline phosphatase, placental type (P05187 whole entry, the tested form may be a part): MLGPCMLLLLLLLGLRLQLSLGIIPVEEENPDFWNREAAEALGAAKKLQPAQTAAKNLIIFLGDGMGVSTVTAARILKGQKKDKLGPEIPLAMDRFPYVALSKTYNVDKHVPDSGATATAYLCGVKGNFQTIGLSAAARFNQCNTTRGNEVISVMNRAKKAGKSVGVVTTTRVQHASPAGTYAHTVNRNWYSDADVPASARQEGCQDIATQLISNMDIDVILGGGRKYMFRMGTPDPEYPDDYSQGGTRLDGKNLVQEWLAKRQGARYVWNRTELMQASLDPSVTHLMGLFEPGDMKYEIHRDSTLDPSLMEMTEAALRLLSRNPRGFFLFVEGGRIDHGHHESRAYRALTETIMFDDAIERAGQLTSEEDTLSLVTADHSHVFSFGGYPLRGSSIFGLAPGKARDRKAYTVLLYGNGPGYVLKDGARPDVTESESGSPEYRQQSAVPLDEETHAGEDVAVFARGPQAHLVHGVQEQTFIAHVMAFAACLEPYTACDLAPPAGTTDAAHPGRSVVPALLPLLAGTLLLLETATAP

[15] = target: NACHT, LRR and PYD domains-containing protein 1 (Homo sapiens, UniProt Q9C000); assay: NALP1 inhibitors in yeast, dose response, luminescent (AID 488860); format: functional
Saccharomyces cerevisiae = assay: S. cerevisiae Caspase-1/ASC signal blockers IC50, NALP1 inhibitor project selectivity test (AID 488863); format: functional, organism-based
[16] = target: Neurotensin receptor type 1 (Homo sapiens, UniProt P30989); format: functional;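 note: Image-based confirmatory dose-response assay measuring agonist activity at NTR1; NTR1-expressing U2OS osteosarcoma cells imaged for beta-arrestin GFP spot formation; agonist potency where compounds increase beta-arrestin recruitment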
Sequence of Neurotensin receptor type 1 (P30989 whole entry): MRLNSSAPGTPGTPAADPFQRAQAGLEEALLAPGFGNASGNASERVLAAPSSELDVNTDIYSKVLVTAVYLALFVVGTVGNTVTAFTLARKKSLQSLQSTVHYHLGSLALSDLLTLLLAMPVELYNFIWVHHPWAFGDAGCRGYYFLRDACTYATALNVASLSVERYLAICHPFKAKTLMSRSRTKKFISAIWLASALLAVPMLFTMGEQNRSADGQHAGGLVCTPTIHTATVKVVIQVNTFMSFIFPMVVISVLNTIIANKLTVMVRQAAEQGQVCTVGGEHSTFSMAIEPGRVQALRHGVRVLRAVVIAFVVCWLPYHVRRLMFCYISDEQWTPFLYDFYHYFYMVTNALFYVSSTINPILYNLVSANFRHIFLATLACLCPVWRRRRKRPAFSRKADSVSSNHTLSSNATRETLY

Cytochrome P450 3A4 = Cytochrome P450 3A4 (Homo sapiens, UniProt P08684);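 note: CYP3A4 tested as one member of a cytochrome P450 panel screen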
[17] = target: T4, Heat shock factor protein 1 (Mus musculus, UniProt P38532); assay: enhancement of HSF1-driven luciferase signal – cell-based, NIH3T3, luminescence, dose retest, confirmation (AID 435004); format: functional;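 note: stress induced by proteasome inhibitor MG132 added 30 min after compound; luciferase reporter driven by HSF1 response element in NIH3T3 cells; actives raise luminescence as potentiators of the MG132 stress response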
T4 sequence (P38532 whole entry): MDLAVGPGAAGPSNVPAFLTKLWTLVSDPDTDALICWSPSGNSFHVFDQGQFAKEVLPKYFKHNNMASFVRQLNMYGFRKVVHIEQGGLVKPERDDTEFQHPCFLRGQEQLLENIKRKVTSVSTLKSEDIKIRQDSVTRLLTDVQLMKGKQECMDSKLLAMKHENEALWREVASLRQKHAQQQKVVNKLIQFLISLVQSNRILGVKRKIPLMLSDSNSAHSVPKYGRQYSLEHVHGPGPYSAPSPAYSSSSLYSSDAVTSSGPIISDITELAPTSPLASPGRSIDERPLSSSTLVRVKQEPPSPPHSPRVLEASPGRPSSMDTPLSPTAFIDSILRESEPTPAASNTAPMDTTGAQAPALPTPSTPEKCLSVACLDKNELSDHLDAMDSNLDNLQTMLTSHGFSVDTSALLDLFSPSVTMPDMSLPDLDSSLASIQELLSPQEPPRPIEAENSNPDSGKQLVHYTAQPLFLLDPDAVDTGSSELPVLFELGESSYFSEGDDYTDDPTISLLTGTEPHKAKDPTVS

[18] = viability of uninfected HEp-2 cells – cell-based, HTS, cytotoxicity control for RSV inhibitor project, dose response (AID 2410); format: functional; settings: human respiratory syncytial virus
[19] = target: T1, Tyrosine-protein phosphatase non-receptor type 7; format: functional
[20] = target: T5, Dual specificity protein phosphatase 6 (Rattus norvegicus, UniProt Q64346)
T5 sequence (Q64346 whole entry): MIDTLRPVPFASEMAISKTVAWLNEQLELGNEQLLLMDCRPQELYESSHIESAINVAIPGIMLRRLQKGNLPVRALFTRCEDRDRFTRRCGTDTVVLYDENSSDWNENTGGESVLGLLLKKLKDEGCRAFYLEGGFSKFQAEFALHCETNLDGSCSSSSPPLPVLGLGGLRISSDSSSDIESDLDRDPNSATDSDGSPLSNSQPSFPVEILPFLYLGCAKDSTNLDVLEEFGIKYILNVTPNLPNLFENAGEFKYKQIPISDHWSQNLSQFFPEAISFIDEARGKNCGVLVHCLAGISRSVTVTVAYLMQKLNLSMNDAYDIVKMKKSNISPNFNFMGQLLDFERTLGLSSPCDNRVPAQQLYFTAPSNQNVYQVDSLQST

[21] = target: T5, Dual specificity protein phosphatase 6; format: functional

Sequence of Nucleotide-binding oligomerization domain-containing protein 2 (Q9HC29 whole entry, the tested form may be a part): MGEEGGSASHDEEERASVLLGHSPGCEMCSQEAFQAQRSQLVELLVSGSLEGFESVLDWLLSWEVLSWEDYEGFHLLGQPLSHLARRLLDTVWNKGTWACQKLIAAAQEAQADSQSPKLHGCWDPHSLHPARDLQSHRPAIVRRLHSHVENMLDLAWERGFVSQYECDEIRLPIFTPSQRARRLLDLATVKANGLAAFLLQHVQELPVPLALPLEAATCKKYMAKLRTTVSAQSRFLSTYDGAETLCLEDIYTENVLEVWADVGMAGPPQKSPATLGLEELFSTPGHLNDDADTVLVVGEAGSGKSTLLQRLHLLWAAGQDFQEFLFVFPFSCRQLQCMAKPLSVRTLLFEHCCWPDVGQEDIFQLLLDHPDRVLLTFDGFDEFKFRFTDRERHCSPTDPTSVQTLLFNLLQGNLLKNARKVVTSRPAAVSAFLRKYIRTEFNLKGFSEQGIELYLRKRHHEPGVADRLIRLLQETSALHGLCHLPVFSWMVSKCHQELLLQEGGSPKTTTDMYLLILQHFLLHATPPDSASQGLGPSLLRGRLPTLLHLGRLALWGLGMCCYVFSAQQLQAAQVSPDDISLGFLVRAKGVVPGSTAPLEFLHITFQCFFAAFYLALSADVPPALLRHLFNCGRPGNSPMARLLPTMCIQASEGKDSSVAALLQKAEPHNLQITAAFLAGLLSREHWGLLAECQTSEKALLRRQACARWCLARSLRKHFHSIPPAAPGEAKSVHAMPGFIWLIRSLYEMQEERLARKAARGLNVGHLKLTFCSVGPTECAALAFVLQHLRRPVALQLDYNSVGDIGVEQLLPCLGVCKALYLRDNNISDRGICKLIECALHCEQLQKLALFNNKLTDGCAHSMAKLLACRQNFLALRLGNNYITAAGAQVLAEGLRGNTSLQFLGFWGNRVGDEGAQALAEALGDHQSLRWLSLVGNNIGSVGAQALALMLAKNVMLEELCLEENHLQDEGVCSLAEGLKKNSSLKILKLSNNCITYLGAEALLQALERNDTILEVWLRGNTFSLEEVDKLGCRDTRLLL

SMILES: Nc1ncnc(Nc2ccccn2)c1[N+](=O)[O-]
- EC50 [1]: 18.8 µM (active)
- IC50 (HEK293 [2]): 7.86 µM (active)
- EC50 (HEK293 [3]): 17.8 µM (active)
- IC50 (HEK293 [4]): 17.6 µM (inactive)
- IC50 (HEK293 [5]): > 20 µM (inactive)
- IC50 (HEK293 [6]): > 20 µM (inactive)

SMILES: O=C1C=CC(=O)N1Nc1c(Cl)cc(Cl)cc1Cl
- Ki [7]: 33.7 µM (inactive)

SMILES: O=C(NCCc1ccccc1)c1ccc2nc(-c3ccco3)c(-c3ccco3)nc2c1
- IC50 (Ephrin type-A receptor 4): 21.3 µM (active)
- IC50 (Genome polyprotein): 59.1 µM (active)
- IC50 (Estrogen receptor beta): 2.59 µM (not active)
- IC50 [8]: 3.16 µM (active)
- IC50 [9]: 1.05 µM (active)

SMILES: Cc1[nH]n(-c2ccccc2)c(=O)c1/C=N/NC(=O)c1cccc(F)c1
- IC50 [10]: 7.78 µM (active)
- EC50 [1]: > 20 µM (inactive)
- AC50 (INS1): 2.03 µM (active)
- IC50 (HEK293 [2]): > 20 µM (inactive)
- EC50 [11]: 4.31 µM (active)
- EC50 (HEK293 [3]): 8.44 µM (active)
- EC50 (Streptococcus): 7.25 µM (active)
- IC50 (HEK293 [4]): > 20 µM (inactive)
- IC50 (HEK293 [5]): > 20 µM (inactive)
- IC50 (HEK293 [6]): > 20 µM (inactive)

SMILES: O=C1C2CC=CCC2C(=O)N1c1n[nH]c(-c2ccccc2)n1 (centres undefined)
- IC50 [12]: 0.308 µM (active)
- IC50 [13]: > 100 µM (not active)
- IC50 [14]: 4 µM (active)

SMILES: COc1ccccc1N1C(=O)C2CCC(c3ccccc3)CC2C1=O (centres undefined)
- IC50 [15]: > 100 µM (inactive)
- IC50 (Saccharomyces cerevisiae): > 100 µM (inactive)

SMILES: c1ccc2c(CNC34CC5CC(CC(C5)C3)C4)c[nH]c2c1
- Ki [7]: 32.9 µM (inactive)

SMILES: CCOC(=O)COc1ccc(/C=C/[N+](=O)[O-])c(OCC(=O)OCC)c1
- EC50 [16]: 3.89 µM (active)
- AC50 (Cytochrome P450 3A4): 11.2 µM (inconclusive)
- EC50 [17]: 6.52 µM (inconclusive)

SMILES: COC(=O)C(=Cc1ccc(OCc2ccc([N+](=O)[O-])cc2)c(OC)c1)C(=O)OC
- CC50 [18]: 6.91 µM (active)
- EC50 [16]: 5.98 µM (active)
- IC50 (HEK293 [2]): 4.31 µM (active)
- EC50 (HEK293 [3]): > 20 µM (inactive)
- IC50 (HEK293 [4]): 8.46 µM (active)
- IC50 (HEK293 [5]): > 20 µM (inactive)

SMILES: NC(=O)[C@H](Cc1ccccc1)n1c(=O)[nH]c(=O)n(-c2ccc(Cl)cc2)c1=O
- IC50 [19]: > 100 µM (not active)
- IC50 [13]: > 100 µM (not active)
- IC50 [20]: > 100 µM (inactive)
- IC50 [21]: > 100 µM (inactive)

SMILES: COc1ccccc1-c1nc(SCc2cccc(Br)c2)n[nH]1
- IC50 [12]: > 100 µM (inactive)
- IC50 [13]: > 100 µM (not active)
- IC50 [14]: > 100 µM (inactive)
